From the SangsterLogP compilation

Columns and labels:
[1] = method code SF, from DOI: 10.1021/jm5017544, PMID: 25671691; details: pH 7.4
[2] = not given; remark: listed apart in the source
[3] = method code SF-AS, from Pogodaeva, N.; Medvedeva, S. (2005). Hydrophobic properties of a number of monosubstituted flavone and flavanone derivatives. Russian Journal of Physical Chemistry A, 79(4)645-648.
[4] = method code SF-HPLC, from DOI: 10.1016/0378-5173(95)00102-o
[5] = not given; remark: listed apart in the source
[6] = method code SF-AS, from Kofitsekpo, W. (1980). An experimental evaluation of the log P of oxamniquine - a new schistosomicide. Drugs under experimental and clinical research, 6(5)421-426.
[7] = method code SF, from DOI: 10.1016/0378-5173(91)90120-d
[8] = method code SF, from Kim, K.; Kim, J.; Kim, Y. (1997). Study on physicochemical properties of pesticides. II. Hanguk Nonghwa Hakhoe Chi, 40(1)76-79.
[9] = method code SF-AS, from Lippold, B.; Lichey, J. (1984). Transport of drugs through lipophilic polymer membranes. II. Influence of the partition and diffusion coefficients. Acta pharmaceutica technologica, 30(2)140-154.
[10] = not given; remark: listed apart in the source
[11] = method code SF-SF, from DOI: 10.1016/j.ejps.2010.09.003, PMID: 20854904; details: pH 10.0
[12] = method code SF-AS, from DOI: 10.3109/00498258909043190, PMID: 2618089; details: pH 10.8
[13] = not given; remark: listed apart in the source
[14] = not given; remark: listed apart in the source
[15] = method code SF-RC, from DOI: 10.1016/j.nucmedbio.2007.07.017, PMID: 17998101; details: pH 7.4
[16] = not given; remark: listed apart in the source
[17] = not given; remark: listed apart in the source
[18] = not given; remark: listed apart in the source
[19] = method code SF-HPLC, from DOI: 10.1023/a:1015968113838, PMID: 3247280; details: pH 7.4
[20] = not given; remark: listed apart in the source
[21] = method code SF-MB, from DOI: 10.1016/0378-5173(83)90017-0; details: pH 3.5
[22] = method code SF-RC, from DOI: 10.1016/s0024-3205(01)01232-2; details: pH 7.4
[23] = not given; remark: listed apart in the source
[24] = method code SF, from DOI: 10.1023/a:1007583422634, PMID: 11028945; details: pH 7.4
[25] = method code SF, from PMID: 2161451; details: pH 7.4
[26] = method code SF-HPLC, from DOI: 10.1248/cpb.32.1929; details: pH 7.2
[27] = method code SF-GLC, from DOI: 10.1021/es60128a001
[28] = method code SF-AS, from DOI: 10.1021/jf990946w, PMID: 10888534
[29] = method code SF-RC, from DOI: 10.1016/j.bmc.2013.04.077, PMID: 23712084; details: pH 7.4
[30] = method code SF-RC, from DOI: 10.1016/j.nucmedbio.2010.09.012, PMID: 21492779; details: pH 7.4
[31] = method code SF-HPLC, from PMID: 18557421; details: pH 1.0
[32] = method code SF-RC, from Bracha, P.; O'Brien, D. (1966). The relation between physical properties and uptake of insecticides by eggs of the large milkweed bug. J Econ Entomol, 59(5)1255-1264.
[33] = not given; remark: listed apart in the source
[34] = not given; remark: listed apart in the source
[35] = not given; remark: listed apart in the source
[36] = not given; remark: listed apart in the source
[37] = not given; remark: listed apart in the source
[38] = method code SF-HPLC, from DOI: 10.1002/ps.2780130506
[39] = method code SF-RC, from DOI: 10.1016/j.nucmedbio.2009.09.005, PMID: 20447558; details: pH 7.4
[40] = method code SF, from DOI: 10.1248/cpb.18.708; details: pH 6.4
[41] = not given; remark: listed apart in the source
[42] = method code SF-RC, from DOI: 10.1016/s0968-0896(99)00108-x, PMID: 10530922; details: pH 7.2
[43] = method code SF-RC, from DOI: 10.1016/s0969-8051(02)00326-8, PMID: 12234587; details: pH 7.4
[44] = method code SF-AS, from DOI: 10.1021/jm00384a018, PMID: 3806586
[45] = not given; remark: listed apart in the source
[46] = not given; remark: listed apart in the source
[47] = method code SF-AS, from DOI: 10.1128/aac.27.1.84, PMID: 2580479
[48] = method code SF-AS, from DOI: 10.1155/2011/965826, PMID: 22295208

Compound: CC(C)(C)C(=O)CC(C(O)C(C)(C)C)n1cncn1 (centres undefined)
- logP: 1.95

Compound: Nc1ccc(-c2ccc3ccccc3n2)cc1
- logD [1]: 1.85

Compound: CCCN(CCOc1c(Cl)cc(Cl)cc1Cl)C(=O)n1ccnc1
- logP [2]: 4.1

Compound: O=C1c2ccccc2OC(c2ccccc2)C1O (centres undefined)
- logP [3]: 2.57

Compound: CCCCCCCCOC(=O)c1cccnc1
- logP [4]: 4.71

Compound: COc1cc(Cc2cnc(N)nc2N)c(I)c(OC)c1OC
- logP [5]: 1.79

Compound: CC(C)NCC1CCc2cc(CO)c([N+](=O)[O-])cc2N1 (centres undefined)
- logP [6]: 2.24

Compound: Cc1cccc(Nc2ccccc2C(=O)O)c1C
- logP [7]: 4.38

Compound: CCOP(=S)(OCC)Oc1cc(C(F)(F)F)nn1-c1ccccc1
- logP [8]: 5.24

Compound: Cc1ccc(Cl)c(OCC(O)CNC(C)(C)C)c1 (centres undefined)
- logP [9]: 2.8

Compound: CC(C)Cn1cnc2c(N)nc3ccccc3c21
- logP [10]: 2.89

Compound: CN1CCN(CCC(=O)c2ccccc2)CC1
- logD [11]: 1.12

Compound: O=C(Cn1c(=O)sc2ccc(Cl)cc21)N1CCN(CCO)CC1
- logD [12]: 1.04

Compound: COC(=O)C1(O)c2ccccc2-c2ccccc21
- logP [13]: 1.67

Compound: CCN(CC)CCNC(=O)c1cc(Br)c(N)cc1OC
- logP [14]: 2.62

Compound: FCCON=C1C=C(C#Cc2ccccn2)CCC1
- logD [15]: 2.1

Compound: S=C(CCCCC1CCSS1)NCCN1CCOCC1 (centres undefined)
- logP [16]: 2.9

Compound: COc1cccc(N2CCN(CCN(C)C)C2=O)c1
- logP [17]: 1.76

Compound: Cc1ccc2ccc3ccccc3c2c1
- logP [18]: 5.15

Compound: CC(C)(C)C(=O)OCC1OC(n2cc(I)c(=O)[nH]c2=O)CC1O (centres undefined)
- logD [19]: 1.34

Compound: CC1CCCC(C)N1NC(=O)c1ccc(Cl)c(S(N)(=O)=O)c1 (centres undefined)
- logP [20]: 1.18

Compound: CCCCCC(=O)N[C@@H]1C(=O)N2[C@@H]1SC(C)(C)[C@@H]2C(=O)O
- logD [21]: 2.37

Compound: CNc1ccc(-c2nc3ccc(C)cc3s2)cc1
- logD [22]: 3.36

Compound: Cc1c2ccccc2cc2ccccc12
- logP [23]: 4.96

Compound: CCCCCOC(=O)[C@@H](N)Cc1ccc(O)c(O)c1
- logD [24]: 1.5

Compound: CCOC(=O)c1ncn2c1CN(C)C(=O)c1c(I)cccc1-2
- logD [25]: 1.48

Compound: COC(COC(N)=O)C1=C(N2CC2)C(=O)C(C)=C(N2CC2)C1=O (centres undefined)
- logD [26]: 0

Compound: CCOP(=S)(OCC)SC(CCl)N1C(=O)c2ccccc2C1=O (centres undefined)
- logP [27]: 4.69

Compound: O=c1c(O)c(-c2cc(O)c(O)c(O)c2)oc2cc(O)cc(O)c12
- logP [28]: 0.72

Compound: O=C(NCCCCCF)Oc1cccc(C2=NCCO2)c1
- logD [29]: 2.33

Compound: CN(C)c1ccc(-c2nc3ccc(I)cc3[nH]2)cc1
- logD [30]: 2.8

Compound: COc1c(O)cc2c(c1O)C1OC(CO)C(O)C(O)C1OC2=O (centres undefined)
- logD [31]: -1.06

Compound: CNC(=O)Oc1cc(C(C)C)cc(C(C)C)c1
- logP [32]: 3.55

Compound: CCCCCCCCc1ccccc1
- logP [33]: 6.5

Compound: COc1ccc(CN2CCNCC2)c(OC)c1OC
- logP [34]: 1.04

Compound: CC(C(=O)O)c1ccc2c(c1)[nH]c1ccc(Cl)cc12 (centres undefined)
- logP [35]: 4.04

Compound: Cc1c(-c2ccc(OCCCc3c[nH]cn3)cc2)no[n+]1[O-]
- logP [36]: 2.4

Compound: CC(C)(c1cc(Br)c(O)c(Br)c1)c1cc(Br)c(O)c(Br)c1
- logP [37]: 5.2

Compound: CNC(=O)ON=Cc1cccc(Oc2ccccc2)c1
- logP [38]: 3.12

Compound: CC(C1CCCCC1)N(C)C(=O)c1ccc[nH]1 (centres undefined)
- logD [39]: 1.48

Compound: Cc1cc(C)cc(NS(=O)(=O)c2ccc(N)cc2)c1
- logD [40]: 2.52

Compound: O=C1c2ccccc2C(=O)C1c1ccccc1
- logP [41]: 2.5

Compound: CSc1ccc(COCCCc2c[nH]cn2)cc1
- logD [42]: 1.88

Compound: CNc1ccc(-c2cc3cc(I)ccc3o2)cc1
- logD [43]: 2.04

Compound: CC(O)C1=CCN(NC(=O)c2ccccc2)CC1 (centres undefined)
- logP [44]: 0.04

Compound: CCCOC(=O)c1ccccc1C(=O)OCCC
- logP [45]: 4.05

Compound: O=c1c(O)c(-c2ccc(O)c(O)c2)oc2cc(O)cc(O)c12
- logP [46]: 2.13

Compound: CO[C@@]1(NC(=O)CSCC#N)C(=O)N2C(C(=O)O)=C(CSc3nnnn3C)CS[C@@H]21
- logP [47]: -0.6

Compound: CC(=O)OC[C@H]1O[C@@H](n2cnc(N)nc2=O)[C@H](OC(C)=O)[C@@H]1OC(C)=O
- logP [48]: -0.61
